Measurements reported in US20120329860A1, “Uses of Beta-Nicotinamide Adenine Dinucleotide” (MEDICAL COLLEGE OF GEORGIA INSTITUTE, INC, priority 2010, published 2012).

Key:
PKA = PKA inhibitor test in ECIS/TER assay (HPAEC); assay type: cell-based, human; settings: H-89 pretreatment 30 min, then 50 μM β-NAD
Text: (§1) The barrier properties of endothelial cells monolayers were characterized using a highly sensitive electrical cell-substrate impedance sensing (ECIS) instrument to measure transendothelial electrical resistance (TER) as described (Birukova et al., 2004a. Microvasc Res 67(1):64-77; Kolosova et al., 2005, Circ Res 97(2):115-124). The TER data was normalized to the initial voltage.
To elucidate the signaling pathways involved in β-NAD-induced HPAEC TER increase, the cAMP-activated protein kinase A (PKA) and the nucleotide exchange protein directly activated by cAMP (EPAC) pathways were examined. Since activation of P2Y11 receptors may lead to the Gas-mediated pathway including direct stimulation of adenylate cyclase, elevation of cAMP levels and cAMP-dependent activation of PKA, a simple inhibitory test was performed to confirm an activation of PKA and its participation in β-NAD-induced HPAEC barrier enhancement. For this test, H-89, an inhibitor of PKA activity, was used in ECIS experiments. HPAEC were pre-treated with H-89 for 30 min and then challenged with β-NAD and the effect of β-NAD-mediated barrier enhancement was determined using TER measurement.

P2Y1 receptor = target: T1, P2Y1 receptor (Homo sapiens, UniProt P47900); test: P2Y1 receptor antagonist study (TER, HPAEC); assay type: cell-based; set-up: dose or concentration left out as unconfirmed; settings: MRS2279 pretreatment 30 min, then b-NAD
T1 construct: To deplete the mRNA content of endogenous P2Y1, P2Y11 or EPAC1; endogenous in cells; host or cells: HPAEC (human pulmonary artery endothelial cells)
Procedure: as §1
(§2) HPAEC were pretreated with receptor-specific antagonists, MRS2279 or NF157, for 30 min, and then challenged with […] b-NAD. TER was registered throughout to examine the barrier enhancement induced by b-NAD in the presence or absence of the antagonists.

P2Y11 receptor = target: T2, P2Y11 receptor (Homo sapiens, UniProt Q96G91); test: P2Y11 receptor antagonist study (TER, HPAEC); assay type: cell-based; settings: 1 mM NF157 pretreatment 30 min, then b-NAD
T2 construct: To deplete the mRNA content of endogenous P2Y1, P2Y11 or EPAC1; endogenous in cells; host or cells: HPAEC (human pulmonary artery endothelial cells)
T2 sequence (Q96G91 1-374): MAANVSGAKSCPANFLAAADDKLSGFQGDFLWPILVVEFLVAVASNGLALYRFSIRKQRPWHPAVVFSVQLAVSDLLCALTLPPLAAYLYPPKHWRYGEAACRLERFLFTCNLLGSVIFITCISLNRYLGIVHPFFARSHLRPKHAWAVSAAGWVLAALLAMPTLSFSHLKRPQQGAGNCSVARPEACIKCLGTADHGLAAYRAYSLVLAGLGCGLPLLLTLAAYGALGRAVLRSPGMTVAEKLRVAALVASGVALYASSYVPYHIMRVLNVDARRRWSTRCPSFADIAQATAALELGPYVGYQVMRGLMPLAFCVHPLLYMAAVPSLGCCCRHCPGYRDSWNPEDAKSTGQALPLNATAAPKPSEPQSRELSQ
Procedure: as §1, §2

HPAEC monolayers = test: Transendothelial electrical resistance (TER) by ECIS in HPAEC monolayers; assay type: cell-based, human; settings: for TER of HPAEC monolayers after cytoskeleton-disrupting agent: agent alone, pretreatment 30 min
Procedure: Human pulmonary artery endothial cells (HPAEC) and EBM-2 complete medium were purchased from Lonza (Allendale, N.J.). HPAEC were cultured according to the manufacturer's protocol and utilized at early (3-6) passages.
as §1

[1] = test system: LPS-induced mortality in mice; test: LPS-induced mortality / survival; assay type: in vivo; settings: LPS alone, within four days
Procedure: Mice were injected with β-NAD (100 mg/kg, i.p) or vehicle (saline, i.p) 10 min after LPS (20 mg/kg, i.p) challenge. As a treatment strategy, β-NAD was given twice a day (i.p) for 4 days. […]

LPS-induced ALI in mice = test: Evans Blue Dye-albumin (EBD) lung permeability; assay type: in vivo; settings: LPS alone treated mice; vehicle 4.57
Procedure: Mice were anesthetized with ketamine (150 mg/kg) and acetylpromazine (15 mg/kg) intraperitoneally (i.p.) before the exposure of the trachea via neck incision and intubation with 20-guage catheter and the right internal jugular vein was exposed via right chest incision for PBS or b-NAD installation. The mice were randomly divided into groups. LPS or sterile saline was instilled intratracheally (i.t.) via a 20-gauge catheter. Simultaneously, mice received either b-NAD (5.4 mg/kg, equivalent to final calculated plasma concentration […] or PBS in the control group intravenously (i.v.) through the internal jugular vein (IJ). The animals were allowed to recover for 18 hr. EBD was given through the IJ 2 hr prior to termination of the experiment. At termination, bronchoalveolar lavage (BAL) was collected. BAL was 1ml of 10% HBSS through the endotracheal catheter immediately on sacrifice with aspiration. BAL was immediately centrifuged and processed. After the BAL, ethylenediaminetetraacetic acid (EDTA) was used to flush the lungs of blood via the right heart ventricle and the lungs were then harvested. BAL and lungs were collected and stored at −70° C. for evaluation of lung injury.
Measurement of EBD concentration in the lungs was performed by injection of EBD (20 mg/kg) into the right internal jugular vein 2 hr before the termination of the experiment to assess the vascular leak. Lungs free of blood were weighed and snap frozen in liquid nitrogen. The left lung was weighed and homogenized, then incubated with two volumes of formamide (18 hr, 60° C.) and centrifuged (5000 g, 30 min, 20° C.). The extravasated EBD concentration (mg/g, lung) in the lung homogenate was calculated against a standard curve. In a separate experiment the EBD was injected into the right internal jugular vein as described above at 2 hrs prior to termination of the experiment and the left lung gross anatomy view was photographed with a Leica NCL150 Camera.

T1 sequence (P47900 whole entry): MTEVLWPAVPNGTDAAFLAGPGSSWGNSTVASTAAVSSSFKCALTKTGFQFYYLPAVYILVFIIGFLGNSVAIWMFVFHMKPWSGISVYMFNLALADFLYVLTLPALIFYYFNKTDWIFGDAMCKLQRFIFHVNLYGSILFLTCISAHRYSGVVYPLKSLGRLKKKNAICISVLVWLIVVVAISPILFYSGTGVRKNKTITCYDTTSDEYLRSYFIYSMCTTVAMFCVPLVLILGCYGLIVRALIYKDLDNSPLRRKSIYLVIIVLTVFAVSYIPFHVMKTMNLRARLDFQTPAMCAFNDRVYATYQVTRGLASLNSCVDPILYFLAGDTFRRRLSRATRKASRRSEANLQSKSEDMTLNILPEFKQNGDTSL

O=S(=O)(NCCNC/C=C/c1ccc(Br)cc1)c1cccc2cnccc12 [H-89]
effect of PKA inhibitor on β-NAD-induced TER increase (PKA): attenuated the β-NAD-induced HPAEC TER increase

CNc1nc(Cl)nc2c1ncn2[C@H]1C[C@@H](OP(=O)(O)O)[C@]2(COP(=O)(O)O)C[C@H]12 [MRS2279]
effect of P2Y1 antagonist on β-NAD-induced TER increase (P2Y1 receptor): attenuated the β-NAD-induced TER increase

O=C(Nc1cccc(C(=O)Nc2cc(C(=O)Nc3ccc(S(=O)(=O)O)c4cc(S(=O)(=O)O)cc(S(=O)(=O)O)c34)ccc2F)c1)Nc1cccc(C(=O)Nc2cc(C(=O)Nc3ccc(S(=O)(=O)O)c4cc(S(=O)(=O)O)cc(S(=O)(=O)O)c34)ccc2F)c1 [NF157]
effect of P2Y11 antagonist on β-NAD-induced TER increase (P2Y11 receptor): attenuated the β-NAD-induced TER increase more significantly

C=C1[C@@H](C)[C@H]2[C@H](Cc3ccccc3)NC(=O)[C@]23OC(=O)/C=C/[C@H](O)CCC[C@@H](C)C/C=C/[C@H]3[C@@H]1O [cytochalasin B, reference compound]
TER of HPAEC monolayers after cytoskeleton-disrupting agent (HPAEC monolayers): produced a prompt attenuation in TER

COC(=O)Nc1nc2ccc(C(=O)c3cccs3)cc2[nH]1 [nocodazole, reference compound]
TER of HPAEC monolayers after cytoskeleton-disrupting agent (HPAEC monolayers): compromises endothelial cell barrier integrity

lipopolysaccharide [LPS, reference compound]
mortality [1]: 100%
EBD-albumin in lung (average) (LPS-induced ALI in mice): 16.81 µg/g
decrease in TER from the baseline (HPAEC monolayers; LPS (100 ng/ml) alone): ~60%

pneumolysin [PLY, reference compound]
decrease in TER from the baseline (HPAEC monolayers; PLY alone (125 ng/ml)): ~80%
